Earlier results in patent publication US12623013B2, “Compounds, systems, and techniques for removal of peripheral amyloid beta peptide with albumin binding competitors” (Fresenius Medical Care Holdings, Inc., priority 2021, dated 2026).

Molecular target: human albumin (Homo sapiens, UniProt P02768)
Conditions: read-out: binding constant to human albumin

Sequence of human albumin (P02768 25-609): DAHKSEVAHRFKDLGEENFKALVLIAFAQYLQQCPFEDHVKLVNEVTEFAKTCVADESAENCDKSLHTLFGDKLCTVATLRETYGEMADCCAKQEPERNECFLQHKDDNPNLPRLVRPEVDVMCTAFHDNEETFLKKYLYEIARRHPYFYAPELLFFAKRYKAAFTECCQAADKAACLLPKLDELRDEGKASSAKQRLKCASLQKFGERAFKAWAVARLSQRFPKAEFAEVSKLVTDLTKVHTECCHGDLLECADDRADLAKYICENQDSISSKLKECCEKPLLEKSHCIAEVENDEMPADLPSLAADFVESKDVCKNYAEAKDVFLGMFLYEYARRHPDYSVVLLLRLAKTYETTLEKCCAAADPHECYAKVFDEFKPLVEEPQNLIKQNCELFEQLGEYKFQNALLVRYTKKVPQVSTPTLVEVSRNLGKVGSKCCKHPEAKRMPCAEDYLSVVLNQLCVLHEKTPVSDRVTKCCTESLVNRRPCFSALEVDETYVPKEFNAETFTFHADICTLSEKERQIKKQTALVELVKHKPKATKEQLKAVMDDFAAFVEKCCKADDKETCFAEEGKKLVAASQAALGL

- Kd: ~15 nM
Substance: Ac-WWEQDRDWDFDVFGGGTP-NH2 [89D03]
